Read-outs that look alike come from different tables or passages of the source.
Columns and labels:
Type in all cases: biochemical
[1] = target: T1, PKD2 (Homo sapiens, UniProt Q9BZL6); experiment: Activity against various protein tyrosine kinases: PKD2; conditions: for inhibition at 0.01 µM: 10 nM
T1 sequence (Q9BZL6 1-878): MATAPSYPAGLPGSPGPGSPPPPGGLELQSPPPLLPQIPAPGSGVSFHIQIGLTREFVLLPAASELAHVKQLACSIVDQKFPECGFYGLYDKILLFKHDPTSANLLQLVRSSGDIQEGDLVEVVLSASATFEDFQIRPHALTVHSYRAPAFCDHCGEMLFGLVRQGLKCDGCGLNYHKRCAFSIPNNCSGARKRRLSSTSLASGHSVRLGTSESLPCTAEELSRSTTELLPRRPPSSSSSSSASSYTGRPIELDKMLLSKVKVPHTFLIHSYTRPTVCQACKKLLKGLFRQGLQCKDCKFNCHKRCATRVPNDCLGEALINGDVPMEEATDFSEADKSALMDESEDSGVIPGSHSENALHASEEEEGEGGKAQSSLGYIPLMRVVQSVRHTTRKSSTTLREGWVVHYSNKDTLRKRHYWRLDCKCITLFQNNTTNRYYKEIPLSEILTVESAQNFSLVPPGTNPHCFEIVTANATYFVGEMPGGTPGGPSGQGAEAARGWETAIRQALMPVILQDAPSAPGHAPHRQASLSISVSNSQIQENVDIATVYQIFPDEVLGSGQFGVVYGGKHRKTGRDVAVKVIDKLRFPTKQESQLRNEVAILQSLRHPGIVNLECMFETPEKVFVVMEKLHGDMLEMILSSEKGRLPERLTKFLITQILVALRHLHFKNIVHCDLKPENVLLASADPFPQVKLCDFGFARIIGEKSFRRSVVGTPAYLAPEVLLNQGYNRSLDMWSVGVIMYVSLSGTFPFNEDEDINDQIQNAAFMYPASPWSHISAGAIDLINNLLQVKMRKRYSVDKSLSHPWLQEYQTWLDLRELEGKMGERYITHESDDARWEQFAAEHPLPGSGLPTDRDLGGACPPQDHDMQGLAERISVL
Description: (§1) Using techniques know those of ordinary skill in the art, compounds were tested for activity against various protein tyrosine kinases.

[2] = target: YES (Homo sapiens, UniProt P07947); experiment: Activity against various protein tyrosine kinases: YES; conditions: for inhibition at 0.01 µM: 10 nM
Description: as §1

[3] = target: T2, p38-delta (Homo sapiens, UniProt O15264); experiment: Activity against various protein tyrosine kinases: p38-delta; conditions: for inhibition at 0.01 µM: 10 nM
T2 sequence (O15264 1-365): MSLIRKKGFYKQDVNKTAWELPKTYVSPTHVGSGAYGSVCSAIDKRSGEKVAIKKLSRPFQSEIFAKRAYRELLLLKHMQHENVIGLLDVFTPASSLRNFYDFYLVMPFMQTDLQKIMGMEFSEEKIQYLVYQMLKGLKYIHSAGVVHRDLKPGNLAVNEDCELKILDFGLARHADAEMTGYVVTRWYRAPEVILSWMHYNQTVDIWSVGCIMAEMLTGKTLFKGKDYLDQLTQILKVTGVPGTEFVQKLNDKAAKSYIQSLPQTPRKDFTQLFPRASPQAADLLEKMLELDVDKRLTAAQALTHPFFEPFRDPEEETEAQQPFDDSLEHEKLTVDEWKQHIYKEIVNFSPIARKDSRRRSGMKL
Description: as §1

[4] = target: FGFR1 (Homo sapiens, UniProt P11362); experiment: Activity against various protein tyrosine kinases: FGFR1; conditions: for inhibition at 0.01 µM: 10 nM
Description: as §1

[5] = target: ABL (Homo sapiens, UniProt P00519); experiment: Activity against various protein tyrosine kinases: ABL; set-up: purchased MILLIPORE 14-529; conditions: for inhibition at 0.01 µM: read-out: % Inhibition at 10 nM; for inhibition at 1 µM: read-out: % Inhibition at 1 μM
Description: as §1

[6] = target: ABL (T315I) (Homo sapiens, UniProt P00519, T315I); experiment: Activity against various protein tyrosine kinases: ABL (T315I); conditions: for inhibition at 0.01 µM: read-out: % Inhibition at 10 nM; for inhibition at 1 µM: read-out: % Inhibition at 1 μM
Description: as §1

[7] = target: LCK (Homo sapiens, UniProt P06239); experiment: Activity against various protein tyrosine kinases: LCK; conditions: for inhibition at 0.01 µM: 10 nM
Description: as §1

[8] = target: INSR (Homo sapiens, UniProt P06213); experiment: Activity against various protein tyrosine kinases: INSR; conditions: for inhibition at 0.01 µM: 10 nM
Description: as §1

[9] = target: FGFR3 (Homo sapiens, UniProt P22607); experiment: Activity against various protein tyrosine kinases: FGFR3; conditions: for inhibition at 0.01 µM: 10 nM
Description: as §1

[10] = target: BTK (Homo sapiens, UniProt Q06187); experiment: Activity against various protein tyrosine kinases: BTK; conditions: for inhibition at 0.01 µM: 10 nM
Description: as §1

[11] = target: ABL (Q252H) (Homo sapiens, UniProt P00519, Q252H); experiment: Activity against various protein tyrosine kinases: ABL (Q252H); conditions: for inhibition at 0.01 µM: read-out: % Inhibition at 10 nM; for inhibition at 1 µM: read-out: % Inhibition at 1 μM
Description: as §1

[12] = target: MAPKAPK3 (Homo sapiens, UniProt Q16644); experiment: Activity against various protein tyrosine kinases: MAPKAPK3; conditions: for inhibition at 0.01 µM: 10 nM
Description: as §1

[13] = target: EPHA2 (Homo sapiens, UniProt P29317); experiment: Activity against various protein tyrosine kinases: EPHA2; conditions: for inhibition at 0.01 µM: 10 nM
Description: as §1

[14] = target: PDGFR_beta (Homo sapiens, UniProt P09619); experiment: Activity against various protein tyrosine kinases: PDGFR_beta; conditions: for inhibition at 0.01 µM: 10 nM
Description: as §1

[15] = target: RSK1 (Homo sapiens, UniProt Q15418); experiment: Activity against various protein tyrosine kinases: RSK1; conditions: for inhibition at 0.01 µM: 10 nM
Description: as §1

Chain of RSK1 (Q15418 whole entry, species assumed): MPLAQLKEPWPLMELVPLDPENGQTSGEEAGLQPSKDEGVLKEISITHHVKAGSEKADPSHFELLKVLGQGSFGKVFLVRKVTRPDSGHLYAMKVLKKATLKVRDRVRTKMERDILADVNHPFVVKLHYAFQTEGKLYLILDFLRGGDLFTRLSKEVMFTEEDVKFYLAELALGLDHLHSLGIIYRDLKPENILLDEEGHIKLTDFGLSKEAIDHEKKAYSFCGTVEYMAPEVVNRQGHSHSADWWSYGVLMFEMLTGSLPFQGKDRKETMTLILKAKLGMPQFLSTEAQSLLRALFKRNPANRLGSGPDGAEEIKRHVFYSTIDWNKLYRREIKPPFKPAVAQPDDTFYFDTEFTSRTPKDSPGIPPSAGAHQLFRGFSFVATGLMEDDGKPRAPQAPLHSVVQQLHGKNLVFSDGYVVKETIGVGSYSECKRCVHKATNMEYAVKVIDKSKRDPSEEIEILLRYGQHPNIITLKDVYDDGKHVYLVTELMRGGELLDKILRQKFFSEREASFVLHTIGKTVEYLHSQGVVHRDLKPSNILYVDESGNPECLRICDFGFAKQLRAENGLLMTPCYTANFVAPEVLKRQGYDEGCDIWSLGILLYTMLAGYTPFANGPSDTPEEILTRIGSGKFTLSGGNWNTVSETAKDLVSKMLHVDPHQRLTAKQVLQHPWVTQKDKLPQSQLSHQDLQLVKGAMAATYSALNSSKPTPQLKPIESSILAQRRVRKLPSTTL
Chain of BTK (Q06187 whole entry, species assumed): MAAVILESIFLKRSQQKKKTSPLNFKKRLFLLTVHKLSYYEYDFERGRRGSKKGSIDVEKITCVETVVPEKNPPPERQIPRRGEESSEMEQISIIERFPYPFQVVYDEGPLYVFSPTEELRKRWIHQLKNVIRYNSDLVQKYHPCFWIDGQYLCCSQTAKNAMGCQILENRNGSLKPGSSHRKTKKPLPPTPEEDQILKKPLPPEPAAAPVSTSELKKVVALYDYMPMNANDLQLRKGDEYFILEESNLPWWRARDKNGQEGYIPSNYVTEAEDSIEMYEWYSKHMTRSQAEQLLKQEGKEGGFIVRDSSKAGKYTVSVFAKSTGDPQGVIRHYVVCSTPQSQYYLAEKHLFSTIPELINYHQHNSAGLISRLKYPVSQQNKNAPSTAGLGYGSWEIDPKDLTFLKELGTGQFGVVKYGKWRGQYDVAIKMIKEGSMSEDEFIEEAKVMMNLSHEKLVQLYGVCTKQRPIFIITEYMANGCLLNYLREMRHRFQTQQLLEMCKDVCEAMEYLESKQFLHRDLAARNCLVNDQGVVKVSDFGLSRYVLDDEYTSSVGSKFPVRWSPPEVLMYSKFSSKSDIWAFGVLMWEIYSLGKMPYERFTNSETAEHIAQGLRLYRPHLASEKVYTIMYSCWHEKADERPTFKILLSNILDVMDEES
Chain of INSR (P06213 28-1382, species assumed): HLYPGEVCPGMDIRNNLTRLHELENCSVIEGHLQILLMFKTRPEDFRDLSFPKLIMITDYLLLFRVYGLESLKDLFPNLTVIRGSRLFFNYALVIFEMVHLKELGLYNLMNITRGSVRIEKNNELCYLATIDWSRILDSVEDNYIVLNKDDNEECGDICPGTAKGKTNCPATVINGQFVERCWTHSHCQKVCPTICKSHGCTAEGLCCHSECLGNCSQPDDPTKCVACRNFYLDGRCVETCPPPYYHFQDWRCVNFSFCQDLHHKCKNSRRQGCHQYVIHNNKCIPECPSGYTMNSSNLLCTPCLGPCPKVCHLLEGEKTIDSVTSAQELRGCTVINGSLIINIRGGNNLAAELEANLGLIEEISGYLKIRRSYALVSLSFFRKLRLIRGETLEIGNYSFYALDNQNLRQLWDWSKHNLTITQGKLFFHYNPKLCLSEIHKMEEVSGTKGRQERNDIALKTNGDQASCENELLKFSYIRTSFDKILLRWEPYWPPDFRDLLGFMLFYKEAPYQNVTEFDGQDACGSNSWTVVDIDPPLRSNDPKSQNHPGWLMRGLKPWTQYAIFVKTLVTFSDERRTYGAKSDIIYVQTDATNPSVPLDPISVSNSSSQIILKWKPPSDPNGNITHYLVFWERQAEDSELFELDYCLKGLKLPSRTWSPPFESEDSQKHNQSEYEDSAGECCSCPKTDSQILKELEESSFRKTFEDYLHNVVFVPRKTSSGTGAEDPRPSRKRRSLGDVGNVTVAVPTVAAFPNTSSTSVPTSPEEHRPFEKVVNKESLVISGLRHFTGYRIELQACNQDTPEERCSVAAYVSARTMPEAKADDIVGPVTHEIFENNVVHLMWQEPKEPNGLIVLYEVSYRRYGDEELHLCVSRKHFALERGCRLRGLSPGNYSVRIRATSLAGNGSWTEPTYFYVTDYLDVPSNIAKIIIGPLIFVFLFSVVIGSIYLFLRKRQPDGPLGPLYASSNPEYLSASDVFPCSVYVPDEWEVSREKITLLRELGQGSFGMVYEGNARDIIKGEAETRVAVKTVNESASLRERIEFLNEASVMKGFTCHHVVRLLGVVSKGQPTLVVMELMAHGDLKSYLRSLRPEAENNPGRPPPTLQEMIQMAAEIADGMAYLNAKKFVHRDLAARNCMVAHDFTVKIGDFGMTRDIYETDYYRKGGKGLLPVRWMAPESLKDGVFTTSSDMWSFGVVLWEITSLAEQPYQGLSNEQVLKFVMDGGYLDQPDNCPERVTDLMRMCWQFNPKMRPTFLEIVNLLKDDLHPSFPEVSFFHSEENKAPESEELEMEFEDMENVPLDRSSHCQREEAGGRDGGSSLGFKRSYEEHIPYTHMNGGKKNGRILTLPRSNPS
Chain of EPHA2 (P29317 24-976, species assumed): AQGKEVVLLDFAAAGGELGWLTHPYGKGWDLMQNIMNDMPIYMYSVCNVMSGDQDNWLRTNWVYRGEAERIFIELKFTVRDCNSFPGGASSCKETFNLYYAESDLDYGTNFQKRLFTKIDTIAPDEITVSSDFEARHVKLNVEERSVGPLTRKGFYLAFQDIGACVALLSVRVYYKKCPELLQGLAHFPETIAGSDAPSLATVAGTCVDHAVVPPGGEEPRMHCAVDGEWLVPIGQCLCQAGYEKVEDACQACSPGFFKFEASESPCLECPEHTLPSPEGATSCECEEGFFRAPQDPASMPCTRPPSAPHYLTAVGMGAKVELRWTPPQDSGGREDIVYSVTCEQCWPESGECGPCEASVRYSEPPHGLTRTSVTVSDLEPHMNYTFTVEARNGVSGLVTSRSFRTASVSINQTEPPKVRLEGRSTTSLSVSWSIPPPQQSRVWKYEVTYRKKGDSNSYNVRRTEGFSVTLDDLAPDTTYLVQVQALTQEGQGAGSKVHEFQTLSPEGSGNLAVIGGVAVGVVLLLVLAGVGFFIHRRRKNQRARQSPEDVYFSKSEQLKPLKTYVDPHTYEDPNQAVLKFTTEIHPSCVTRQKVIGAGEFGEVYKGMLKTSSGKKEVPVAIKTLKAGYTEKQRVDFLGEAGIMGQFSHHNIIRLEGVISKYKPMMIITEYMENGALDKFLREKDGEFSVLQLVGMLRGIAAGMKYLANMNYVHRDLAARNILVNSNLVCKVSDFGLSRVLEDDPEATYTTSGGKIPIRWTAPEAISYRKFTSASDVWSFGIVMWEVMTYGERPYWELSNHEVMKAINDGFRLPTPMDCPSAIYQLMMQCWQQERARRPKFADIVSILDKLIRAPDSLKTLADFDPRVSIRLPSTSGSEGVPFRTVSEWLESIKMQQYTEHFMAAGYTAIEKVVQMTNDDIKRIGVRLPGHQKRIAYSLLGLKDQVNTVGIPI
Chain of FGFR3 (P22607 23-806, species assumed): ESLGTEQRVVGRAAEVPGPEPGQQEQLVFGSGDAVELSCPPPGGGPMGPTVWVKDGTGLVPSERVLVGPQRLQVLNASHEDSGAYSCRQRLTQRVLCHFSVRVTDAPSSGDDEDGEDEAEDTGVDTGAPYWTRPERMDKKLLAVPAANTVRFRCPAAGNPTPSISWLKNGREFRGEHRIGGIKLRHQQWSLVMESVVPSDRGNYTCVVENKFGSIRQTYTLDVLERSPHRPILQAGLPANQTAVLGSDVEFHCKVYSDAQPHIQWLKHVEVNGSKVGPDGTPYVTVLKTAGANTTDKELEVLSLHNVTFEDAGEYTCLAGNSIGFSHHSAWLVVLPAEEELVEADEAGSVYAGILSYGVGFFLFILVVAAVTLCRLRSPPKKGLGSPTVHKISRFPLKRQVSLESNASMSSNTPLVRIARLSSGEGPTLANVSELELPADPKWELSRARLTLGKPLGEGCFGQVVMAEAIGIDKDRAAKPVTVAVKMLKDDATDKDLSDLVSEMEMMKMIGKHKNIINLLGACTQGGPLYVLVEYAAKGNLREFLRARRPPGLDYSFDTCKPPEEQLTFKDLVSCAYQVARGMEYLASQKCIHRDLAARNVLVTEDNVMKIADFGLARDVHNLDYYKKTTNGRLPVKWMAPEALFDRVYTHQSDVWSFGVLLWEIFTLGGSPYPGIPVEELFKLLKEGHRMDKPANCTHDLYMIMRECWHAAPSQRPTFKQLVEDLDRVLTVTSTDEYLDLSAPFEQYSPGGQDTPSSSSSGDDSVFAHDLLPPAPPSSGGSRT
Chain of MAPKAPK3 (Q16644 whole entry, species assumed): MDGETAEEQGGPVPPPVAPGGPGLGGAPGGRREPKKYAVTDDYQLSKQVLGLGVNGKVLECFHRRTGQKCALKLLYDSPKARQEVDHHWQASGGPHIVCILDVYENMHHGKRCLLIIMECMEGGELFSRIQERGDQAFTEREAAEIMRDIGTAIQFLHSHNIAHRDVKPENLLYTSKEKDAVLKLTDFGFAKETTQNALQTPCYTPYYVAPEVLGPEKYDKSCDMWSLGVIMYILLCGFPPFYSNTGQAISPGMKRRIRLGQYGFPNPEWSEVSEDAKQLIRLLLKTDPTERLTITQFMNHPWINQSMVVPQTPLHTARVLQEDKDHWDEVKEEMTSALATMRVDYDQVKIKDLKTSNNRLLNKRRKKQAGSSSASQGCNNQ

inhibition at 0.01 µM [1] | inhibition at 1 µM [1] | inhibition at 0.01 µM [2] | inhibition at 1 µM [2] | inhibition at 0.01 µM [3] | inhibition at 1 µM [3] | inhibition at 0.01 µM [4] | inhibition at 1 µM [4] | inhibition at 0.01 µM [7] | inhibition at 1 µM [7] | inhibition at 0.01 µM [8] | inhibition at 1 µM [8] | inhibition at 0.01 µM [9] | inhibition at 1 µM [9] | inhibition at 0.01 µM [10] | inhibition at 1 µM [10] | inhibition at 0.01 µM [12] | inhibition at 1 µM [12] | inhibition at 0.01 µM [13] | inhibition at 1 µM [13] | SMILES | also measured
3% | 4% | 100% | 102% | 0% | 0% | 2% | 3% | 98% | 98% | 2% | 3% | 2% | 10% | 99% | 100% | 1% | 0% | 36% | 101% | COCCOCCOCCOCCOCCOCCOCCNC(=O)OCCN1CCN(c2cc(Nc3ncc(C(=O)Nc4c(C)cccc4Cl)s3)nc(C)n2)CC1 [mPEG7-NHCOO-Dasatinib] | inhibition at 0.01 µM ([5]; ABL, 10 nM): 99%; inhibition at 1 µM ([5]; ABL, 1 μM): 99%; inhibition at 0.01 µM ([6]; ABL (T315I), 10 nM): 4%; inhibition at 1 µM ([6]; ABL (T315I), 1 μM): 26%; inhibition at 0.01 µM ([11]; ABL (Q252H), 10 nM): 99%; inhibition at 1 µM ([11]; ABL (Q252H), 1 μM): 99%; inhibition at 0.01 µM [14]: 60%; inhibition at 1 µM [14]: 100%; inhibition at 0.01 µM [15]: 0%; inhibition at 1 µM [15]: 4%
12% | -5% | 100% | 100% | 0% | 2% | 11% | -3% | 97% | 98% | 1% | -1% | 3% | 11% | 99% | 100% | 5% | 3% | 40% | 100% | COCCOCCOCCNC(=O)OCCN1CCN(c2cc(Nc3ncc(C(=O)Nc4c(C)cccc4Cl)s3)nc(C)n2)CC1 [mPEG3-NHCOO-Dasatinib] | inhibition at 0.01 µM [5]: 99%; inhibition at 1 µM [5]: 99%; inhibition at 0.01 µM [6]: 1%; inhibition at 1 µM [6]: 36%; inhibition at 0.01 µM [11]: 98%; inhibition at 1 µM [11]: 99%; inhibition at 0.01 µM [14]: 48%; inhibition at 1 µM [14]: 99%; inhibition at 0.01 µM [15]: 2%; inhibition at 1 µM [15]: 0%

— patent US20120094998A1, “Oligomer-Protein Tyrosine Kinase Inhibitor Conjugates” (Nektar Therapeutics, priority 2009, published 2012)
